# Laboratory results from PMC2577671, “Evaluation of Dimebon in cellular model of Huntington's disease” (Molecular Neurodegeneration, 2008).
# Biological target: T1, α2A-Adrenergic receptor (Homo sapiens, UniProt P08913)
# T1 construct: gene ADRA2A
# Experiment: MDS Pharma Services binding screen at […]
# T1 sequence (P08913 whole entry): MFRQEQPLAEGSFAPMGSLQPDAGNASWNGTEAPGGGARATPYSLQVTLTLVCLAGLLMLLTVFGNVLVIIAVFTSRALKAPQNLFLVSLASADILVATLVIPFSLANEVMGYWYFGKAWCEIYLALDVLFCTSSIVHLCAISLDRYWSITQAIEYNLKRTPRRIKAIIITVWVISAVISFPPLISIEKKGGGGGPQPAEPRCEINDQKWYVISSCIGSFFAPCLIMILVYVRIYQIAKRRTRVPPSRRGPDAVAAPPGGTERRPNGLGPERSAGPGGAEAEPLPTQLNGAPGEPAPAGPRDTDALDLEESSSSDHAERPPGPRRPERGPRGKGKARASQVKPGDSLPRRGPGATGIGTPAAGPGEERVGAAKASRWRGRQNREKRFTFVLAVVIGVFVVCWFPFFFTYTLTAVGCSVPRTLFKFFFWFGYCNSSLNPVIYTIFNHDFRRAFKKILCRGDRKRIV
smiles,measurement,value
"Cc1ccc2c(c1)c1c(n2CCc2ccc(C)nc2)CCN(C)C1 [Dimebon, 2,3,4,5-Tetrahydro-2,8-dimethyl-5-(2-(6-methyl-3-pyridyl)ethyl)-1H-pyrido(4,3-b)indole]",inhibition at 10 µM,> 90%
